The values that follow come from the pKa sets of Baltruschat and Czodrowski (2020).

SMILES strings stand for the structures.

Usually pKa stands for the pH at which an ionisable group is half protonated. Read a low pKa as a stronger acid or weaker base. In turn, `CCN(CC)c1nc(N)nc(N(CC)CC)n1` came in with a pKa (basic group) of 6.28.
`COc1ccc(C2CCCN2C)cc1` (stereo not given): the pKa (basic group) worked out at 8.9.
Same read-out and setting: the same measure for `O=C1c2ccccc2CN1C1CC2CCC(C1)N2Cc1ccccc1` (stereo not given): 8.71; for `CNCCN(C)CC[NH2+]C`: 9.84.
Still for that read-out and setting: the same measure for `CCOC(=O)c1cc(-c2ccccc2)nnc1NCC[NH+]1CCOCC1`: 1.5.
With `CCCC(O)C(C(=O)O)c1ccc(-c2ccccc2)cc1` (stereo not given), the pKa (acidic group) is 4.01.
With `COc1ccc(-c2ncc(-c3ccc(N)cc3)o2)cc1`, the pKa (basic group) was found to be 3.71.
For the compound `C[NH2+]CC(=O)O`, the pKa (acidic group) was 2.24.
`CN1C(C)(C)CCCC1(C)C` showed a pKa (basic group) of 11.2.
Take `C[Si](C)(C)CC(=O)O`: the pKa (acidic group) turned out to be 5.22.
`C[NH+](C)CCc1nnn[nH]1` came in with a pKa (acidic group) of 4.59 and a pKa (basic group) of -2.8.
`COC(=O)CC(=O)c1ccncc1`: for the setting “acidic group”, the pKa is 8.24.
On to `[NH3+]C(CCc1ccc([N+](=O)[O-])cc1)C(=O)O` (stereo not given), for which, where the note is “acidic group”, the pKa turned out to be 3.05.
For `CCN(CCO)CC(C)O` (stereo not given), the pKa (basic group) stood at 8.9.
Still for that read-out and setting: the same measure for `[O-]c1ncnc2[nH]cnc12`: 8.71.
Under “acidic group”, `O=C([O-])c1cccc2ccc(O)cc12` gave a pKa of 9.6.
Same read-out and setting: the same measure for `O=C(O)C[Se]c1ccccc1`: 3.75.
As to `CC[C@]12CCCN3CC[C@@]4(c5cccc(OC)c5N(C(C)=O)[C@H]4CC1)[C@@H]32`, the pKa (basic group) was determined as 7.57.
Under “acidic group”, `O=C(O)[C@H]1O[C@H]1C(=O)[O-]` displayed a pKa of 3.92.
On to `N#Cc1cccc(C(=O)O)c1`, for which, for the setting “acidic group”, the pKa was 3.6.
Still for that read-out and setting: next, `O=C(CC(=O)C(F)(F)F)c1ccccc1`: 6.3.
With `c1cc(N2CCOCC2)c2c(N3CCOCC3)cccc2c1`, the pKa (basic group) came to 7.49.
Take `Cc1cc(Cn2[nH+]c(C)cc2C)n[nH]1`: for the setting “basic group”, the pKa was 1.2.
In turn, `NC(=O)CCc1ccncc1` yielded a pKa (basic group) of 5.58.
In the case of `O=C1CCCC(=O)C1`, the pKa (acidic group) was 5.26.
As for `CN[C@H]1C[C@@H]1NC`, the pKa (basic group) is 8.73.
Consider `CC(C)CCCC(C)N` (stereo not given), for which, under “basic group”, the pKa was determined as 10.3.
The same measure, in the same setting: next, `C(=N\c1ccccc1)/c1ccccc1`: 4.55.
Consider `O=C(O)c1ccc2ccccc2c1`, for which, under “acidic group”, the pKa worked out at 4.2.
Still for that read-out and setting: next, `COc1cccc(S)c1`: 6.39; `CC(C)(C(N)=O)S(N)(=O)=O`: 9.92.
The compound `Cc1cc(CO)c(C)c(C)n1` came in with a pKa (basic group) of 7.3.
In the case of `O=c1cc(S(=O)(=O)[O-])[nH]c(=O)[nH]1`, for the setting “acidic group”, the pKa is 7.26.
`CN(c1ccccc1)C(C)(C)C` displayed a pKa (basic group) of 7.5.
As to `Cc1cc(C)c2cccc(O)c2n1`, the pKa by setting is: (acidic group) 10.6; (basic group) 6.2.
The compound `CCC(CO)NCl` (stereo not given) gave a pKa (basic group) of 1.55.
`[NH3+]c1ccc(/C=N/NC(=O)c2ccncc2)cc1` registered a pKa (basic group) of 3.2.
Consider `CN([NH3+])C(N)=S`, for which, where the note is “basic group”, the pKa came out at 1.2.
Where the note is “acidic group”, `CCOC(=O)[C@H]1CC(=O)N[C@@H]1C(=O)O` came in with a pKa of 3.5.
Regarding `CCN(CC)CCCCNc1ccnc2ccccc12`, the pKa (basic group) came to 10.2.
`Cc1c[n+]([C@@H]2C[C@@H](O)[C@H](CO)O2)c(O)nc1NCCc1ccccc1`: the pKa (acidic group) worked out at 3.83.
Still for that read-out and setting: the same measure for `O[n+]1c2ccccc2nc2ccccc21`: 1.12.
`CN(C)Cc1cccc(NC(=O)/C=N/[O-])c1` displayed a pKa (basic group) of 9.12.
Turning to `CCOC(=O)c1c(C)nc(C)c(C(=O)OCC)c1-c1cccc(NS(=O)(=O)c2ccc(N)cc2)c1`, the pKa (acidic group) was found to be 9.7.
The same measure, in the same setting: next, `N#Cc1ccc(CC(C#N)C#N)cc1`: 11; `c1ccc(-c2cn[nH]c2)cc1`: 13.6; `O=CCC=O`: 4.57.
Still for that read-out and setting: the same measure for `Cc1ccc(Br)c(O)c(=O)c1`: 6.3.
Under “basic group”, `C[NH+](C)CCCNc1c2ccccc2nc2cccc([N+](=O)[O-])c12` came in with a pKa of 6.2.
Regarding `O=[N+]([O-])CSc1ccccc1`, the pKa (acidic group) amounted to 6.67.
In the case of `Cc1cc2nnn(O)c2cc1Cl`, the pKa (acidic group) was 4.57.
On to `CCNC(C)C`, for which, where the note is “basic group”, the pKa is 11.
Regarding `CCNCC[Se-]`, the pKa (basic group) was 10.9.
In turn, `NCc1cccc(O)c1` came in with a pKa (basic group) of 9.06.
Turning to `Oc1c(Cl)cc(Cl)c2cccnc12`, the pKa is, setting by setting: (acidic group) 7.51; (basic group) 2.89.
Regarding `O=c1oc2cc(O)ccc2cc1-c1nc2ccccc2o1`, the pKa (acidic group) came to 6.84.
Same read-out and setting: the same measure for `O=C(O)/C=C/c1ccccc1O`: 4.56; for `Oc1c(Cl)cccc1Cl`: 6.8.
Compound `Nc1ccnc(-c2cc(Cl)ccn2)c1` registered a pKa (basic group) of 7.4.
Under “acidic group”, `O=C(O)CSc1ccc([N+](=O)[O-])cc1` displayed a pKa of 3.2.
Take `C[C@@H](O)[C@H](CCC=O)O[C@H]1O[C@H](C)[C@@H](N(C)C)[C@H](O)[C@H]1O`: for the setting “basic group”, the pKa amounted to 7.
`S=C(Nc1ccccc1)c1cccc(Br)c1`: the pKa (acidic group) turned out to be 10.5.
Consider `CCN(N)CC`, for which, under “basic group”, the pKa is 7.63.
Still for that read-out and setting: next, `COc1cccc(CN)c1OC`: 9.41.
`CCCc1c(-c2ccccc2)nn(-c2ccccc2)c1O` yielded a pKa (acidic group) of 7.
The same measure, in the same setting: next, `O=C(c1ccc([N+](=O)[O-])cc1)c1cc[nH]n1`: 11.7.
Turning to `Cc1cc(-n2[nH+]c(C)cc2C)[nH]n1`, the pKa (basic group) was -2.4.
For the compound `O=[N+]([O-])c1ccc(S(=O)(=O)Nc2ccccc2)cc1`, under “acidic group”, the pKa worked out at 7.41.
With `CN(C)CCO`, the pKa (basic group) was determined as 9.36.
For `O/N=C/c1ccc(Cl)cc1`, the pKa (acidic group) is 10.5.
Compound `CC(C=C(c1cccs1)c1cccs1)N1CCCCCCC1` (stereo not given) registered a pKa (basic group) of 7.52.
Still for that read-out and setting: next, `Cc1cc(-c2[nH]cc[nH+]2)n[nH]1`: 1.5.
Same read-out and setting: next, `CC[C@]1(O)C[C@H](C)N[C@@H]2CCCC[C@H]21`: 10.1.
The compound `C[NH+]1C[C@@H](C(=O)O)C[C@@]2(O)c3cccc4[nH]cc(c34)C[C@H]12` returned a pKa (acidic group) of 3.38.
The same measure, in the same setting: next, `CC(C)C[NH2+]CC(=O)O`: 2.35.
Where the note is “basic group”, `CNc1nc(NC)c2cn[nH]c2n1` showed a pKa of 6.08.
In turn, `CCP(=O)(CC)CC(C)=O` registered a pKa (acidic group) of 11.9.
As to `Cc1cc(N)c2ccccc2n1`, the pKa (basic group) came to 9.44.
For the setting “acidic group”, `O=c1cccc([O-])cc1O` registered a pKa of 9.52.
Under “basic group”, `CCN(CC)CCBr` had a pKa of 7.
Consider `COc1ncnc2ccccc12`, for which, where the note is “basic group”, the pKa is 3.13.
Compound `C[S+](C)c1ccc(O)cc1` yielded a pKa (acidic group) of 7.31.
Where the note is “acidic group”, `[NH3+]CC(=O)N[C@@H](Cc1c[nH]c[nH+]1)C(=O)O` gave a pKa of 2.61.
As for `COc1cc(CO)ccc1O`, under “acidic group”, the pKa is 9.79.
The compound `C=C[C@H]1C[NH+]2CC[C@@H]1C[C@H]2[C@H](O)c1ccnc2ccc(OC)cc12` registered a pKa (basic group) of 4.22.
Turning to `CN(C)c1ccc(C2=CN3CCC2CC3)cc1`, the pKa (basic group) worked out at 9.82.
Regarding `O=[PH](O)c1ccccc1`, the pKa (acidic group) turned out to be 1.63.
Still for that read-out and setting: next, `O=C1C=CC(=Nc2ccc(O)cc2)C=C1`: 8.1.
As for `CN(CC[NH+](C)C)CC[NH+](C)C`, the pKa (basic group) is 2.57.
On to `Cn1cnc2c1NC=NS2(=O)=O`, for which, where the note is “acidic group”, the pKa amounted to 4.45.
`CCCn1ccnc1C=O`: the pKa (basic group) amounted to 5.15.
On the same count and under the same terms, next, `[O-]c1ccncc1`: 11.1; `CC1=CCN2CC[C@@H](O)[C@@H]12`: 9.6.
Compound `COc1ccc(C)c(C(=O)O)c1` gave a pKa (acidic group) of 3.84.
In the case of `COc1ccncc1`, the pKa (basic group) came out at 6.65.
Turning to `N#CC(C#N)=C(C#N)Nc1ccc(C(=O)O)cc1`, the pKa (acidic group) is 4.2.
For the setting “basic group”, `CCOc1cccc(N)c1` showed a pKa of 4.15.
Same read-out and setting: the same measure for `CCC(C)NC(C)C` (stereo not given): 11; for `c1ccc(-c2ccoc2)nc1`: 4.65; for `CC[NH+](CC)CCNc1ccnc2ccccc12`: 8.
For the compound `Nc1nc([S-])[nH+]c([O-])c1C1=CCCCC1`, the pKa (basic group) stood at 7.11.
On the same count and under the same terms, next, `CCC(C)(N)CC`: 10.9; `CCNCC(=O)N(CC)CC`: 8.78; `Fc1cccc2[nH]cnc12`: 4.4.
Still for that read-out and setting: the same measure for `CN(CO)c1ccccc1`: 3.72; for `c1ccc2c(c1)CNCCC[NH2+]Cc1ccccc1OCCO2`: 7.82.
`O=C([O-])[C@H](NCC[NH2+][C@@H](C(=O)[O-])c1ccccc1[O-])c1ccccc1O` registered a pKa (acidic group) of 10.9.
Same read-out and setting: next, `Cc1cc(C)cc(O)c1`: 10.1.
In the case of `Cn1cnc2cncnc21`, the pKa (basic group) was determined as 2.42.
The same measure, in the same setting: next, `Nc1cncn1[C@H]1O[C@@H](CO)[C@H](O)[C@@H]1O`: 6.05; `COc1cc(S(C)(=O)=O)cc(C(=O)N[C@@H]2C[C@H]3CC[C@@H](C2)N3Cc2ccccc2)c1OC`: 8.92.
As to `COc1ccccc1C(=O)O`, the pKa (acidic group) worked out at 4.05.
The same measure, in the same setting: the same measure for `O=C(O)/C=C/C(=O)c1ccccc1`: 3.34; for `Oc1cc(Cl)c(Cl)c(Cl)c1`: 7.7.
Still for that read-out and setting: next, `O=S1(=O)N=CNc2ccncc21`: 6.71.
Same read-out and setting: next, `[NH3+]CCC(=O)N[C@@H](Cc1c[nH]c[nH+]1)C(=O)O`: 2.7.
Take `CC(C)C(N)C(C)C`: the pKa (basic group) turned out to be 10.4.
Same read-out and setting: next, `NC(N)=S`: -0.96.
On the same count and under the same terms, the same measure for `Cc1ccn(-c2ccccn2)n1`: 1.36; for `N#CC(CCN1CCCCC1)(c1ccccc1)c1ccccc1`: 8.07.
The compound `CN(CCCN)CCCN` came in with a pKa (basic group) of 10.4.
Same read-out and setting: next, `CC(CC(C#N)(c1ccccc1)c1ccccc1)N1CCOCC1` (stereo not given): 6.1; `Clc1cc2cccnc2c2ncccc12`: 4.22.
As to `CC1(C)[C@@H]2CC[C@](C(=O)O)(C2)[C@@H]1O`, the pKa (acidic group) came out at 4.83.
For the setting “acidic group”, `Oc1cccc2cccc(O)c12` showed a pKa of 6.71.
For the setting “basic group”, `NCc1cccc(O)c1O` had a pKa of 8.3.
As for `CC(=O)N(O)c1ccccc1`, under “acidic group”, the pKa stood at 8.36.
As to `CCCN(N)CCC`, the pKa (basic group) came to 7.
Compound `Cc1ncsc1C(=O)O` registered a pKa (acidic group) of 3.54.
Where the note is “basic group”, `Nc1ccnc(-c2cccc(Cl)n2)c1` had a pKa of 7.7.
Regarding `[NH3+]Cc1ccc(F)c(O)c1`, the pKa (acidic group) is 8.
Regarding `CCCCN1CCCCC1C` (stereo not given), the pKa (basic group) came out at 10.7.
`O=C(O)[C@H]1CC[C@@H](O)CC1`: the pKa (acidic group) came to 4.84.
On to `CCCCCCCCN`, for which the pKa (basic group) came to 10.8.
`NS(=O)(=O)c1ccc(/N=C/c2ccccc2[O-])cc1` registered a pKa (acidic group) of 11.7.
For the setting “acidic group”, `O=C(O)[C@@H]1CCC[C@H](O)C1` gave a pKa of 4.6.
Compound `CCNC(C)C(=O)[O-]` (stereo not given) showed a pKa (basic group) of 10.2.
